# Test results: patent US9694019B2, “Compositions and methods for treating bone diseases and broken bones” (BRIGHAM YOUNG UNIVERSITY, priority 2011, dated 2017)
# Key:
# MC3T3-E1 cells = assay: Quantitative spectroscopic ALP (alkaline phosphatase) assay in MC3T3-E1 cells; format: cell-based; details: MC3T3-E1 day 4 of differentiation, with or without 200 ng/mL rhBMP-2 and 50 μM sodium alginate; compared with CSA-90 (FIG. 4)
# Description: MC3T3-E1 cells at day 4 of differentiation were treated with or without 200 ng/mL rhBMP-2 (recombinant human BMP-2), 0-50 μM CSA-90, and with or without 50 μM sodium alginate. Quantitative spectroscopic ALP (alkaline phosphatase) assays were performed in on multiple wells and normalized to viable cell number. Experimental assays were carried out twice independently. Data for this analysis is provided in FIG. 4 (from left to right 0, 0.5, 1, 5, 10, 25, and 50 μM CSA-90 were tested with or without BMP-2 and Algin).
# primary human MSC cells = assay: BMP regulation: gene expression array (SABiosciences PAHS-026) in primary human MSC cells; format: cell-based; details: hMSC, 8 hours
# Description: SABisosciences custom array plates (Cat#PAHS-026) were used to measure BMP expression. These array plates are validated for efficiency when used at recommended conditions and reagents. On day 1, primary human MSC cells were plated at 200,000 cell/well using 6-well plates with 10% FBS, Penicillin and Streptomycin 10 mL per Liter, in recommended media. Only early passages of cells were used.
# On day 2, cells were treated with compounds dissolved in DMSO diluted 1:1000 or more to avoid solvent effects. A non-treated negative control group was evaluated (FIG. 1, “Control Group”) along with a positive control group containing PS1 at 0.1 μM (FIG. 1, “Group 1”). Final testing concentration for CSA-90 was 5.0 μM (FIG. 1, “Group 2”), 2.5 μM (FIG. 1, “Group 3”), and 1.2 μM (FIG. 1, “Group 4”). Treatment lasted 8 hours, followed by RNA isolation using a QIAGEN Miniprep Kit. RNA was measured at 260/280 nm using NanoDrop2000 and normalized to 250 ng. cDNA preparation was done using QIAGEN First Strand kit.
# quadriceps of mice = assay: Ectopic bone formation in quadriceps of mice (muscle pouch model), XR and microCT; format: in vivo
# Description: 10 μg rhBMP-2 was implanted into the quadriceps of mice with 0, 25 μg, or 250 μg CSA-90. A control group received 250 μg CSA-90 alone (without rhBMP-2). Bone was allowed to form ectopically over 3 weeks. Specimens were then harvested for XR (FIG. 5) and microCT (FIG. 7).
# MicroCT scans were performed on all samples using a Skyscan 1174 microCT scanner. Scanning data confirmed increases in bone volume (BV) with the addition of CSA-90 (See FIG. 6).
# [1] = v. untreated control, concentration not given
smiles,measurement,setting,value
CCCCCCCCNCCC[C@@H](C)[C@H]1CC[C@H]2[C@@H]3[C@H](OCCCN)C[C@@H]4C[C@H](OCCCN)CC[C@]4(C)[C@H]3C[C@H](OCCCN)[C@]12C [CSA-13],ALP (alkaline phosphatase) activity normalized to viable cell number,MC3T3-E1 cells,Comparable results
CCCCCN(CCCCC)CCC[C@@H](C)[C@H]1CC[C@H]2[C@@H]3[C@H](OCCCN)C[C@@H]4C[C@H](OCCCN)CC[C@]4(C)[C@H]3C[C@H](OCCCN)[C@]12C [CSA-90],up-regulation of BMP-2 mRNA expression,primary human MSC cells; 5 μM concentration,~6 fold
same,"Fold Up-Regulation ACTB (Actin, beta)",primary human MSC cells; [1],−4.1173 fold
same,Fold Up-Regulation AHSG (Alpha-2-HS-glycoprotein),primary human MSC cells; [1],1.4077 fold
same,"Fold Up-Regulation ALPL (Alkaline phosphatase, liver/bone/kidney)",primary human MSC cells; [1],−5.8397 fold
same,Fold Up-Regulation AMBN (Ameloblastin),primary human MSC cells; [1],−1.0298 fold
same,"Fold Up-Regulation AMELY (Amelogenin, Y-linked)",primary human MSC cells; [1],−1.008 fold
same,Fold Up-Regulation ANXA5 (Annexin A5),primary human MSC cells; [1],−1.0287 fold
same,Fold Up-Regulation BGLAP (Bone gamma-carboxyglutamate (gla) protein),primary human MSC cells; [1],−1.1336 fold
same,Fold Up-Regulation BGN (Biglycan),primary human MSC cells; [1],−2.2679 fold
same,Fold Up-Regulation BMP-1 (Bone morphogenetic protein 1),primary human MSC cells; [1],−1.4719 fold
same,Fold Up-Regulation BMP-2 (Bone morphogenetic protein 2),primary human MSC cells; [1],6.7295 fold
same,Fold Up-Regulation BMP-3 (Bone morphogenetic protein 3),primary human MSC cells; [1],1.3888 fold
same,Fold Up-Regulation BMP-4 (Bone morphogenetic protein 4),primary human MSC cells; [1],−3.7558 fold
same,Fold Up-Regulation BMP-5 (Bone morphogenetic protein 5),primary human MSC cells; [1],2.1036 fold
same,Fold Up-Regulation BMP-6 (Bone morphogenetic protein 6),primary human MSC cells; [1],14.8826 fold
same,Fold Up-Regulation CALCR (CALCITONIN RECEPTOR),primary human MSC cells; [1],2.1036 fold
same,"Fold Up-Regulation CD36 (CD36 molecule, thrombospondin receptor)",primary human MSC cells; [1],−2.3276 fold
same,"Fold Up-Regulation CDH11 (Cadherin 11, type 2, OB-cadherin)",primary human MSC cells; [1],−2.6119 fold
same,"Fold Up-Regulation COL1A1 (Collagen, type I, alpha 1)",primary human MSC cells; [1],−1.9589 fold
same,"Fold Up-Regulation COL1A2 (Collagen, type I, alpha 2)",primary human MSC cells; [1],−1.525 fold
same,"Fold Up-Regulation COL2A1 (Collagen, type II, alpha 1)",primary human MSC cells; [1],1.0817 fold
same,"Fold Up-Regulation COL3A1 (Collagen, type III, alpha 1)",primary human MSC cells; [1],1.1521 fold
same,"Fold Up-Regulation COL4A3 (Collagen, type IV, alpha 3)",primary human MSC cells; [1],−9.7105 fold
same,"Fold Up-Regulation COL5A1 (Collagen, type V, alpha 1)",primary human MSC cells; [1],−1.603 fold
same,"Fold Up-Regulation COL10A1 (Collagen, type X, alpha 1)",primary human MSC cells; [1],1.0439 fold
same,"Fold Up-Regulation COL11A1 (Collagen, type XI, alpha 1)",primary human MSC cells; [1],−2.8055 fold
same,"Fold Up-Regulation COL12A1 (Collagen, type XII, alpha 1)",primary human MSC cells; [1],−1.366 fold
same,"Fold Up-Regulation COL14A1 (Collagen, type XIV, alpha 1)",primary human MSC cells; [1],1.0661 fold
same,"Fold Up-Regulation COL15A1 (Collagen, type XV, alpha 1)",primary human MSC cells; [1],1.1217 fold
same,Fold Up-Regulation COMP (Cartilage oligomeric matrix protein),primary human MSC cells; [1],1.5909 fold
same,Fold Up-Regulation CSF2 (Colony stimulating factor 2),primary human MSC cells; [1],3.2231 fold
same,Fold Up-Regulation CSF3 (Colony stimulating factor 3),primary human MSC cells; [1],1.3504 fold
same,Fold Up-Regulation CTSK (Cathepsin K),primary human MSC cells; [1],1.0843 fold
same,Fold Up-Regulation DMP1 (Dentin matrix acidic phosphoprotein 1),primary human MSC cells; [1],2.1036 fold
same,Fold Up-Regulation DSPP (Dentin sialophosphoprotein),primary human MSC cells; [1],2.1036 fold
same,Fold Up-Regulation EGF (Epidermal growth factor),primary human MSC cells; [1],−1.3949 fold
same,Fold Up-Regulation EGFR (Epidermal growth factor receptor),primary human MSC cells; [1],1.0894 fold
same,Fold Up-Regulation ENAM (Enamelin),primary human MSC cells; [1],2.1036 fold
same,Fold Up-Regulation FGF1 (Fibroblast growth factor 1),primary human MSC cells; [1],−1.7551 fold
same,Fold Up-Regulation FGF2 (Fibroblast growth factor 2),primary human MSC cells; [1],−1.0498 fold
same,Fold Up-Regulation FGF3 (Fibroblast growth factor 3),primary human MSC cells; [1],−1.5325 fold
same,Fold Up-Regulation FGFR1 (Fibroblast growth factor receptor 1),primary human MSC cells; [1],−1.5568 fold
same,Fold Up-Regulation FGFR2 (Fibroblast growth factor receptor 2),primary human MSC cells; [1],−3.1961 fold
same,Fold Up-Regulation FLT1 (Fms-related tyrosine kinase 1),primary human MSC cells; [1],−2.1823 fold
same,Fold Up-Regulation FN1 (Fibronectin 1),primary human MSC cells; [1],−1.4863 fold
same,Fold Up-Regulation GAPDH (Glyceraldehyde-3-phosphate dehydrogenase),primary human MSC cells; [1],−1.0501 fold
same,Fold Up-Regulation GDF10 (Growth differentiation factor 10),primary human MSC cells; [1],2.1036 fold
same,Fold Up-Regulation ICAM1 (Intercellular adhesion molecule 1),primary human MSC cells; [1],1.3786 fold
same,Fold Up-Regulation IGF1 (Insulin-like growth factor 1),primary human MSC cells; [1],15.8816 fold
same,Fold Up-Regulation IGF1R (Insulin-like growth factor 1 receptor),primary human MSC cells; [1],1.6854 fold
same,Fold Up-Regulation IGF2 (Insulin-like growth factor 2),primary human MSC cells; [1],−2.6412 fold
same,"Fold Up-Regulation ITGA1 (Integrin, alpha 1)",primary human MSC cells; [1],1.2807 fold
same,"Fold Up-Regulation ITGA2 (Integrin, alpha 2)",primary human MSC cells; [1],1.6174 fold
same,"Fold Up-Regulation ITGA3 (Integrin, alpha 3)",primary human MSC cells; [1],−2.1172 fold
same,"Fold Up-Regulation ITGAM (Integrin, alpha M)",primary human MSC cells; [1],2.5974 fold
same,"Fold Up-Regulation ITGB1 (Integrin, beta 1)",primary human MSC cells; [1],−1.3007 fold
same,Fold Up-Regulation MMP2 (Matrix metallopeptidase 2),primary human MSC cells; [1],−1.6002 fold
same,Fold Up-Regulation MMP8 (Matrix metallopeptidase 8),primary human MSC cells; [1],−1.0189 fold
same,Fold Up-Regulation MMP9 (Matrix metallopeptidase 9),primary human MSC cells; [1],2.0169 fold
same,Fold Up-Regulation MMP10 (Matrix metallopeptidase 10),primary human MSC cells; [1],2.1233 fold
same,Fold Up-Regulation MSX1 (Msh homeobox 1),primary human MSC cells; [1],−1.1393 fold
same,Fold Up-Regulation NFKB1 (Nuclear factor of kappa light polypeptide gene enhancer in B-cells 1),primary human MSC cells; [1],1.0365 fold
same,Fold Up-Regulation PDGFA (Platelet-derived growth factor alpha polypeptide),primary human MSC cells; [1],−1.1381 fold
same,"Fold Up-Regulation PHEX (Phosphate regulating endopeptidase homolog, X-linked)",primary human MSC cells; [1],−2.0881 fold
same,Fold Up-Regulation RUNX2 (Runt-related transcription factor 2),primary human MSC cells; [1],−1.1998 fold
same,"Fold Up-Regulation SCARB1 (Scavenger receptor class B, member 1)",primary human MSC cells; [1],−2.7137 fold
same,"Fold Up-Regulation SERPIN H1 (Serpin peptidase inhibitor, clade H, member 1)",primary human MSC cells; [1],−2.6434 fold
same,Fold Up-Regulation SMAD1 (SMAD family member 1),primary human MSC cells; [1],−1.2436 fold
same,Fold Up-Regulation SMAD2 (SMAD family member 2),primary human MSC cells; [1],−1.2016 fold
same,Fold Up-Regulation SMAD3 (SMAD family member 3),primary human MSC cells; [1],−2.8152 fold
same,Fold Up-Regulation SMAD4 (SMAD family member 4),primary human MSC cells; [1],−1.0529 fold
same,Fold Up-Regulation STATH (Statherin),primary human MSC cells; [1],2.5891 fold
same,Fold Up-Regulation TFIP11 (Tuftelin interacting protein 11),primary human MSC cells; [1],−1.6592 fold
same,"Fold Up-Regulation TGFB1 (Transforming growth factor, beta 1)",primary human MSC cells; [1],−1.3031 fold
same,"Fold Up-Regulation TGFB2 (Transforming growth factor, beta 2)",primary human MSC cells; [1],1.619 fold
same,"Fold Up-Regulation TGFB3 (Transforming growth factor, beta 3)",primary human MSC cells; [1],3.2853 fold
same,"Fold Up-Regulation TGFBR1 (Transforming growth factor, beta receptor 1)",primary human MSC cells; [1],1.5219 fold
same,"Fold Up-Regulation TGFBR2 (Transforming growth factor, beta receptor II)",primary human MSC cells; [1],−1.7799 fold
same,Fold Up-Regulation TNF (Tumor necrosis factor),primary human MSC cells; [1],2.7072 fold
same,Fold Up-Regulation TUFT1 (Tuftelin 1),primary human MSC cells; [1],−4.5431 fold
same,Fold Up-Regulation TWIST1 (Twist homolog 1),primary human MSC cells; [1],−1.6813 fold
same,Fold Up-Regulation VCAM1 (Vascular cell adhesion molecule 1),primary human MSC cells; [1],−1.1098 fold
same,"Fold Up-Regulation VDR (Vitamin D (1,25-dihydroxyvitamin D3) receptor)",primary human MSC cells; [1],−6.6007 fold
same,Fold Up-Regulation VEGFA (Vascular endothelial growth factor A),primary human MSC cells; [1],1.3548 fold
same,Fold Up-Regulation VEGFB (Vascular endothelial growth factor B),primary human MSC cells; [1],1.2749 fold
same,increase in bone volume (BV) vs rhBMP-2 alone,"quadriceps of mice; 25 μg with 10 μg rhBMP-2, mice quadriceps, 3 weeks, microCT, parametric P=0.02, nonparametric P<0.01",statistically significant
same,"bone formation, CSA alone","quadriceps of mice; 250 μg alone without rhBMP-2, muscle pouch model, mice, 3 weeks, microCT (FIG. 7)",appears to also result in bone formation
same,increase in bone volume (BV) vs rhBMP-2 alone,"quadriceps of mice; 250 μg with 10 μg rhBMP-2, mice quadriceps, 3 weeks, microCT, parametric P<0.01, nonparametric P<0.01",statistically significant
same,increase of ectopic bone volume induced by rhBMP-2 treatment,"quadriceps of mice; mice quadriceps, 10 μg rhBMP-2 plus CSA-90, 3 weeks, microCT, vs rhBMP-2 alone",about 3.2 fold
